Where “and” joins values, the source holds several entries; their conditions need not be identical. Identical values can stand only once. Like-named read-outs stand apart in the source and are kept apart here.
Tests used:
Format in all cases: in vivo
[1] = tested on: total evaluation; test: Test Example 12: field plot test, total evaluation of growth inhibition; conditions: 648 h, Example 8 suspension concentrate, 27 days after treatment, field plots, read-out: Growth Inhibition (%) TE; for inhibition at 40 g/ha: Compound A 40 g/ha; for inhibition at 60 g/ha: Compound A 60 g/ha
Description: In field plots of 3 m² (1 m × 3 m) unit arranged in a duplicate system, seeds of corn, crabgrass (Digitaria sanguinalis L.), green foxtail (Setaria viridis L.), common lambsquarters (Chenopodium album L.), slender amaranth (Amaranthus virdis L.) and velvetleaf (Abutilon theophrasti MEDIC.) were sown and grown. Also, barnyardgrass (Echinochloa crus-galli L.), henbit (Lamiun amplexlcaule L.), pale smartweed (Polygonum lapathifolium L.) and threeseeded copperleaf (Acalypha australis L.) were allowed to grow spontaneously. When the plants grew to certain stages (corn: 6.1 to 6.5-leaf stage, crabgrass: 2.0 to 4.5-leaf stage, green foxtail: 3.0 to 4.5-leaf stage, common lambsquarters: 4.0 to 8.0-leaf stage, slender amaranth: 1.0 to 4.0-leaf stage, velvetleaf: 2.0 to 3.5-leaf stage, barnyardgrass: 3.0 to 4.5-leaf stage, henbit: 2.0 to 5.0 cm, pale smartweed: 3.0 to 5.0-leaf stage and threeseeded copperleaf: 2.0 to 4.0-leaf stage), the oil-based suspension concentrate obtained in Example 8 was diluted with 200 liters/hectare of water containing a predetermined amount of Frigate and was applied foliarly to the plants with a small spray gun.
Twenty seven days after treatment, the growth inhibition of plants except for corn plants was evaluated with visual observation in the same manner as in Test Example 1 and are shown in Table 12.

[2] = tested on: total evaluation; test: Test Example 13: field plot test, total evaluation of growth inhibition; conditions: Example 8 suspension concentrate, 27 days after treatment, field plots; for inhibition at 40 g/ha: Compound A 40 g/ha
Description: (§1) In field plots of 4 m² (1 m × 4 m) unit arranged in a duplicate system, seeds of corn, crabgrass (Digitaria sanguinalis L.) common lambsquarters (Chenopodium album L.), slender amaranth (Amaranthus viridis L.), velvetleaf (Abutilon theophrasti MEDIC.) and common cocklebur (Xanthium strumarium L.) were sown and grown. Also, green foxtail (Setaria viridis L.) and barnyardgrass (Echinochloa crus-galli L.) were allowed to grow spontaneously. When the plants grew to certain stages (corn: 4.2 to 6.0-leaf stage, crabgrass: 3.2 to 5.0-leaf stage, common lambsquarters: 3.0 to 6.0-leaf stage, slender amaranth: 2.0 to 5.0-leaf stage, velvetleaf: 1.5 to 4.0-leaf stage, common cocklebur: cotyledonal to 3.5-leaf stage, green foxtail: 3.0 to 5.0-leaf stage and barnyardgrass: 3.0 to 5.0-leaf stage), the oil-based suspension concentrate obtained in Example 8 was diluted with 200 liters/hectare of water containing a predetermined amount of Frigate and was applied foliarly to the plants with a small spray gun.
Twenty seven days after treatment, the growth inhibition of plants except for corn plants was evaluated with visual observation in the same manner as in Test Example 1 and are shown in Table 13.

[3] = tested on: johnsongrass (Sorghum halepense L.); test: Test Example 10: pot test on rhizome plants, Example 8 suspension concentrate with Frigate; conditions: duplicate; for inhibition at 10 g/ha / inhibition at 20 g/ha / inhibition at 30 g/ha / inhibition at 40 g/ha: Sorghum halepense; for inhibition at 10 g/ha: Compound A 10 g/ha
Protocol: Rhizomes of johnsongrass (Sorghum halepense L.) induced to germinate were transplanted in 1/150,000-hectare pots filled with upland soil and arranged in a duplicate system. When the johnsongrass plants grew to a 3- to 6-leaf stage, the oil-based suspension concentrate obtained in Example 8 was diluted with 200 liters/hectare of water containing a predetermined amount of Frigate and was applied foliarly to the plants with a small spray gun.
Seventeen days and fifty six days after treatment (D.A.T.) the growth inhibition of plants was evaluated with visual observation in the same manner as in Test Example 1 and are shown in Table 10.

[4] = tested on: corn plants; test: Test Example 13: field plot test, injury on corn; conditions: Example 8 suspension concentrate, 4 days after treatment, 0 for no injury to 5 for severe injure
Description: as §1
On the other hand, 4 days after treatment, corn plants were examined for condition of injury (degree of discoloration and yellowing) with visual observation and the results are also shown in Table 13 (0 for no injury to 5 for severe injure).

[5] = tested on: Crabgrass (Digitaria sanguinalis L.); test: Test Example 7: pot test, Example 8 suspension concentrate with Frigate; conditions: 20 days after treatment, duplicate; for inhibition at 5 g/ha / inhibition at 10 g/ha / inhibition at 20 g/ha / inhibition at 40 g/ha: Digitaria sanguinalis, 480 h, read-out: Growth Inhibition (%) of Crabgrass; for inhibition at 20 g/ha: Compound A 20 g/ha; for inhibition at 40 g/ha: Compound A 40 g/ha
Protocol: Crabgrass (Digitaria sanguinalis L.) seeds were sown in 1/1,000,000-hectare pots filled with upland soil and arranged in a duplicate system. When the crabgrass plants grew to a 3- to 3.3-leaf stage, the oil-based suspension concentrate obtained in Example 8 was diluted with 500 liters/hectare of water containing a predetermined amount of Frigate and was applied foliarly to the plants with a small spray gun.
Twenty days after treatment, the growth inhibition of plants was evaluated with visual observation in the same manner as in Teat Example 1 and are shown in Table 7.

[6] = Frigate 0.2 % by volume, Compound A 20 g/ha
[7] = Frigate 0.2 % by volume, Compound A 30 g/ha
[8] = Frigate: No addition, Compound A 30 g/ha
[9] = Frigate 0.125 % by volume, Compound A 5 g/ha

With COc1cc(OC)nc(NC(=O)NS(=O)(=O)c2ncccc2C(=O)N(C)C)n1 [Compound A, N-[(4,6-dimethoxypyrimidin-2-yl)aminocarbonyl]-3-dimethylaminocarbonyl-2-pyridinesulfonamide] the inhibition at 20 g/ha [1, 6] was 95%, the inhibition at 30 g/ha [1, 7] was 95% and the inhibition at 40 g/ha ([1]; Frigate 0.2 % by volume) was 95%. It also gave an inhibition at 60 g/ha ([1]; Frigate 0.2 % by volume) of 99%, an inhibition at 40 g/ha ([1]; Frigate: No addition) of 70% and an inhibition at 60 g/ha ([1]; Frigate: No addition) of 70%. The inhibition at 30 g/ha ([2]; 648 h, Frigate 0.1 % by volume, Compound A 30 g/ha, read-out: Growth Inhibition (%) TE) was 75%, the inhibition at 40 g/ha ([2]; 648 h, Frigate 0.1 % by volume, read-out: Growth Inhibition (%) TE) was 90% and the inhibition at 20 g/ha ([2]; 648 h, Frigate 0.2 % by volume, Compound A 20 g/ha, read-out: Growth Inhibition (%) TE) was 65%. The inhibition at 30 g/ha ([2]; 648 h, Frigate 0.2 % by volume, Compound A 30 g/ha, read-out: Growth Inhibition (%) TE) was 80%, the inhibition at 40 g/ha ([2]; 648 h, Frigate 0.2 % by volume, read-out: Growth Inhibition (%) TE) was 85% and the inhibition at 30 g/ha ([2]; 648 h, Frigate: No addition, Compound A 30 g/ha, read-out: Growth Inhibition (%) TE) was 50%. The inhibition at 40 g/ha ([2]; 648 h, Frigate: No addition, read-out: Growth Inhibition (%) TE) was 70%, the inhibition at 50 g/ha ([2]; 648 h, Frigate: No addition, Compound A 50 g/ha, read-out: Growth Inhibition (%) TE) was 75% and the “Growth Inhibition (%) TE” value [2, 8] was 60%. For the same compound, the “Growth Inhibition (%) of Johnsongrass 17 D.A.T.” value ([3]; Frigate 0.1 % by volume, Compound A 30 g/ha, 17 days after treatment) was 80%, the “Growth Inhibition (%) of Johnsongrass 17 D.A.T.” value ([3]; Frigate 0.2 % by volume, Compound A 20 g/ha, 17 days after treatment) was 80% and the “Growth Inhibition (%) of Johnsongrass 17 D.A.T.” value ([3]; Frigate 0.2 % by volume, Compound A 30 g/ha, 17 days after treatment) was 80%. The “Growth Inhibition (%) of Johnsongrass 56 D.A.T.” value ([3]; Frigate 0.2 % by volume, Compound A 30 g/ha, 56 days after treatment) was 98%, the “Growth Inhibition (%) of Johnsongrass 56 D.A.T.” value ([3]; Frigate: No addition, Compound A 40 g/ha, 56 days after treatment) was 98% and the inhibition at 10 g/ha ([3]; 408 h, Frigate 0.1 % by volume, 17 days after treatment, read-out: Growth Inhibition (%) of Johnsongrass 17 D.A.T.) was 65%. For the same compound, the inhibition at 20 g/ha ([3]; 408 h, Frigate 0.1 % by volume, Compound A 20 g/ha, 17 days after treatment, read-out: Growth Inhibition (%) of Johnsongrass 17 D.A.T.) was 75%, the inhibition at 30 g/ha ([3]; 408 h, Frigate 0.1 % by volume, Compound A 30 g/ha, 17 days after treatment, read-out: Growth Inhibition (%) of Johnsongrass 17 D.A.T.) was 75% and the inhibition at 10 g/ha ([3]; 408 h, Frigate 0.2 % by volume, 17 days after treatment, read-out: Growth Inhibition (%) of Johnsongrass 17 D.A.T.) was 70%. It also gave an inhibition at 20 g/ha ([3]; 408 h, Frigate 0.2 % by volume, Compound A 20 g/ha, 17 days after treatment, read-out: Growth Inhibition (%) of Johnsongrass 17 D.A.T.) of 75%, an inhibition at 30 g/ha ([3]; 408 h, Frigate 0.2 % by volume, Compound A 30 g/ha, 17 days after treatment, read-out: Growth Inhibition (%) of Johnsongrass 17 D.A.T.) of 85% and an inhibition at 20 g/ha ([3]; 408 h, Frigate: No addition, Compound A 20 g/ha, 17 days after treatment, read-out: Growth Inhibition (%) of Johnsongrass 17 D.A.T.) of 65%. The inhibition at 30 g/ha ([3]; 408 h, Frigate: No addition, Compound A 30 g/ha, 17 days after treatment, read-out: Growth Inhibition (%) of Johnsongrass 17 D.A.T.) was 60%, the inhibition at 40 g/ha ([3]; 408 h, Frigate: No addition, Compound A 40 g/ha, 17 days after treatment, read-out: Growth Inhibition (%) of Johnsongrass 17 D.A.T.) was 65% and the inhibition at 10 g/ha ([3]; 1344 h, Frigate 0.1 % by volume, 56 days after treatment, read-out: Growth Inhibition (%) of Johnsongrass 56 D.A.T.) was 100%. For the same compound, the inhibition at 20 g/ha ([3]; 1344 h, Frigate 0.1 % by volume, Compound A 20 g/ha, 56 days after treatment, read-out: Growth Inhibition (%) of Johnsongrass 56 D.A.T.) was 100%, the inhibition at 30 g/ha ([3]; 1344 h, Frigate 0.1 % by volume, Compound A 30 g/ha, 56 days after treatment, read-out: Growth Inhibition (%) of Johnsongrass 56 D.A.T.) was 100% and the inhibition at 10 g/ha ([3]; 1344 h, Frigate 0.2 % by volume, 56 days after treatment, read-out: Growth Inhibition (%) of Johnsongrass 56 D.A.T.) was 100%. The inhibition at 20 g/ha ([3]; 1344 h, Frigate 0.2 % by volume, Compound A 20 g/ha, 56 days after treatment, read-out: Growth Inhibition (%) of Johnsongrass 56 D.A.T.) was 100%, the inhibition at 30 g/ha ([3]; 1344 h, Frigate 0.2 % by volume, Compound A 30 g/ha, 56 days after treatment, read-out: Growth Inhibition (%) of Johnsongrass 56 D.A.T.) was 100% and the inhibition at 20 g/ha ([3]; 1344 h, Frigate: No addition, Compound A 20 g/ha, 56 days after treatment, read-out: Growth Inhibition (%) of Johnsongrass 56 D.A.T.) was 90%. The inhibition at 40 g/ha ([3]; 1344 h, Frigate: No addition, Compound A 40 g/ha, 56 days after treatment, read-out: Growth Inhibition (%) of Johnsongrass 56 D.A.T.) was 100%, the “Injury on Corn” value ([4]; Frigate 0.1 % by volume, Compound A 30 g/ha) was 1.0 and the “Injury on Corn” value ([4]; Frigate 0.1 % by volume, Compound A 40 g/ha) was 1.0. For the same compound, the “Injury on Corn” value [4, 6] was 1.0, the “Injury on Corn” value [4, 7] was 1.0 and 1.5 and the “Injury on Corn” value ([4]; Frigate 0.2 % by volume, Compound A 40 g/ha) was 1.5 and 2.0. The “Injury on Corn” value [4, 8] was 1.0, the “Injury on Corn” value ([4]; Frigate: No addition, Compound A 40 g/ha) was 1.0 and 1.5 and the “Injury on Corn” value ([4]; Frigate: No addition, Compound A 50 g/ha) was 1.0. It also gave an inhibition at 5 g/ha [5, 9] of 40%, an inhibition at 10 g/ha ([5]; Frigate 0.125 % by volume, Compound A 10 g/ha) of 85% and an inhibition at 20 g/ha ([5]; Frigate 0.125 % by volume) of 90%. For the same compound, the inhibition at 40 g/ha ([5]; Frigate 0.125 % by volume) was 100%, the inhibition at 5 g/ha ([5]; Frigate 0.25 % by volume, Compound A 5 g/ha) was 50% and the inhibition at 10 g/ha ([5]; Frigate 0.25 % by volume, Compound A 10 g/ha) was 95%. The inhibition at 20 g/ha ([5]; Frigate 0.25 % by volume) was 100%, the inhibition at 40 g/ha ([5]; Frigate 0.25 % by volume) was 100% and the inhibition at 5 g/ha ([5]; Frigate 0.5 % by volume, Compound A 5 g/ha) was 75%. The inhibition at 10 g/ha ([5]; Frigate 0.5 % by volume, Compound A 10 g/ha) was 95%, the inhibition at 20 g/ha ([5]; Frigate 0.5 % by volume) was 100% and the inhibition at 40 g/ha ([5]; Frigate 0.5 % by volume) was 98%. The inhibition at 5 g/ha ([5]; Frigate: No addition, Compound A 5 g/ha) was 0%, the inhibition at 20 g/ha ([5]; Frigate: No addition) was 70% and the inhibition at 40 g/ha ([5]; Frigate: No addition) was 85%. For the same compound, the “Growth Inhibition (%) of Crabgrass” value [5, 9] was 45% and the “Growth Inhibition (%) of Crabgrass” value ([5]; Frigate: No addition, Compound A 10 g/ha) was 5%.

— EP0598515A1, “Method for herbicidal activity-enhancing, activity-enhanced herbicidal composition and activity-enhancing composition” (ISHIHARA SANGYO KAISHA LTD., priority 1992, dated 1994)
